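A five-concentration, 48-hour dose response in 96-well plates underlies each endpoint, interpolated linearly between surrounding concentrations. Here, GI50 denotes the concentration required for 50% inhibition of growth. TGI marks complete inhibition of growth.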 Where a SMILES comes first, the peptide text is derived from it. [ ]: non-standard residue; d: D form. The star is where a group is joined. ξ: configuration not given here. ξW = NC(Cc1c[nH]c2ccccc12)C(=O)O; X30 = O=C(O)[C@H]1CCC[C@H]1N*; ξF = NC(Cc1ccccc1)C(=O)O; Boc = CC(C)(C)OC(=O)*; ξK = NCCCCC(N)C(=O)O; ξT = CC(O)C(N)C(=O)O; tBu = CC(C)(C)*
Assays:
Test in all cases: growth of human tumour cells (NCI), 48 h
DU-145 prostate = test system: DU-145 prostate
EKVX NSCLC = test system: EKVX NSCLC
MALME-3M melanoma = test system: MALME-3M melanoma
SNB-75 CNS = test system: SNB-75 CNS
MCF7 breast = test system: MCF7 breast
PC-3 prostate = test system: PC-3 prostate
CAKI-1 renal = test system: CAKI-1 renal
HL-60(TB) leukemia = test system: HL-60(TB) leukemia
UO-31 renal = test system: UO-31 renal
A549 NSCLC = test system: A549 NSCLC
NCI-H522 lung = test system: NCI-H522 lung
SW-620 colon = test system: SW-620 colon
MDA-N = test system: MDA-N
OVCAR-3 ovarian = test system: OVCAR-3 ovarian
M14 melanoma = test system: M14 melanoma
NCI/ADR-RES ovarian = test system: NCI/ADR-RES ovarian
MDA-MB-231 breast = test system: MDA-MB-231 breast
NCI-H460 lung = test system: NCI-H460 lung
HCC-2998 colon = test system: HCC-2998 colon
RPMI-8226 leukemia = test system: RPMI-8226 leukemia
UACC-257 melanoma = test system: UACC-257 melanoma
OVCAR-8 ovarian = test system: OVCAR-8 ovarian
SF-268 CNS = test system: SF-268 CNS
SK-MEL-28 melanoma = test system: SK-MEL-28 melanoma
HT29 colon = test system: HT29 colon
HOP-92 NSCLC = test system: HOP-92 NSCLC
SNB-19 CNS = test system: SNB-19 CNS
SR leukemia = test system: SR leukemia
SF-295 CNS = test system: SF-295 CNS
NCI-H226 lung = test system: NCI-H226 lung
786-0 renal = test system: 786-0 renal
LOX IMVI melanoma = test system: LOX IMVI melanoma
OVCAR-5 ovarian = test system: OVCAR-5 ovarian
U251 CNS = test system: U251 CNS
UACC-62 melanoma = test system: UACC-62 melanoma
IGROV1 ovarian = test system: IGROV1 ovarian
COLO 205 colon = test system: COLO 205 colon
RXF 393 renal = test system: RXF 393 renal
HCT-116 colon = test system: HCT-116 colon
NCI-H23 lung = test system: NCI-H23 lung
ACHN renal = test system: ACHN renal
K-562 leukemia = test system: K-562 leukemia
HS 578T breast = test system: HS 578T breast
KM12 colon = test system: KM12 colon
T-47D breast = test system: T-47D breast
SN12C renal = test system: SN12C renal
SK-OV-3 ovarian = test system: SK-OV-3 ovarian
SF-539 CNS = test system: SF-539 CNS
SK-MEL-2 melanoma = test system: SK-MEL-2 melanoma
MOLT-4 leukemia = test system: MOLT-4 leukemia
MDA-MB-435 = test system: MDA-MB-435
CCRF-CEM leukemia = test system: CCRF-CEM leukemia
OVCAR-4 ovarian = test system: OVCAR-4 ovarian
HOP-62 NSCLC = test system: HOP-62 NSCLC
SK-MEL-5 melanoma = test system: SK-MEL-5 melanoma
TK-10 renal = test system: TK-10 renal
HCT-15 colon = test system: HCT-15 colon
A498 renal = test system: A498 renal
BT-549 breast = test system: BT-549 breast

## CC(OC(C)(C)C)C(NC(=O)C(CCCCNC(=O)OC(C)(C)C)NC(=O)C(Cc1c[nH]c2ccccc12)NC(=O)C(N)Cc1ccccc1)C(=O)NC(Cc1ccccc1)C(=O)N[C@@H]1CCC[C@@H]1C(=O)O (stereo not given in full) (H-[ξF][ξW][ξK](Boc)[ξT](tBu)[ξF]-X30)
DU-145 prostate
  TGI: > 100000 nM
EKVX NSCLC
  TGI: > 100000 nM
MALME-3M melanoma
  TGI: > 100000 nM
SNB-75 CNS
  TGI: > 100000 nM
MCF7 breast
  TGI: 62500 nM
PC-3 prostate
  TGI: > 100000 nM
CAKI-1 renal
  TGI: > 100000 nM
HL-60(TB) leukemia
  TGI: 82900 nM
UO-31 renal
  TGI: > 100000 nM
A549 NSCLC
  TGI: > 100000 nM
NCI-H522 lung
  TGI: 41000 nM
SW-620 colon
  TGI: > 100000 nM
MDA-N
  TGI: > 100000 nM
OVCAR-3 ovarian
  TGI: > 100000 nM
M14 melanoma
  TGI: > 100000 nM
NCI/ADR-RES ovarian
  TGI: > 100000 nM
MDA-MB-231 breast
  TGI: > 100000 nM
NCI-H460 lung
  TGI: > 100000 nM
HCC-2998 colon
  TGI: 41100 nM
RPMI-8226 leukemia
  TGI: > 100000 nM
UACC-257 melanoma
  TGI: > 100000 nM
OVCAR-8 ovarian
  TGI: > 100000 nM
SF-268 CNS
  TGI: > 100000 nM
SK-MEL-28 melanoma
  TGI: > 100000 nM
HT29 colon
  TGI: 80300 nM
HOP-92 NSCLC
  TGI: 88300 nM
SNB-19 CNS
  TGI: 51200 nM
SR leukemia
  TGI: > 100000 nM
SF-295 CNS
  TGI: > 100000 nM
NCI-H226 lung
  TGI: 52400 nM
786-0 renal
  TGI: > 100000 nM
LOX IMVI melanoma
  TGI: 60000 nM
OVCAR-5 ovarian
  TGI: 40600 nM
U251 CNS
  TGI: 68300 nM
UACC-62 melanoma
  TGI: 85500 nM
IGROV1 ovarian
  TGI: > 100000 nM
COLO 205 colon
  TGI: 76200 nM
RXF 393 renal
  TGI: > 100000 nM
HCT-116 colon
  TGI: > 100000 nM
NCI-H23 lung
  TGI: > 100000 nM
ACHN renal
  TGI: > 100000 nM
K-562 leukemia
  TGI: > 100000 nM
HS 578T breast
  TGI: 50600 nM
KM12 colon
  TGI: 37200 nM
T-47D breast
  TGI: > 100000 nM
SN12C renal
  TGI: 67200 nM
SK-OV-3 ovarian
  TGI: > 100000 nM
SF-539 CNS
  TGI: 36500 nM
SK-MEL-2 melanoma
  TGI: 41500 nM
MOLT-4 leukemia
  TGI: > 100000 nM
MDA-MB-435
  TGI: > 100000 nM
CCRF-CEM leukemia
  TGI: 92400 nM
OVCAR-4 ovarian
  TGI: > 100000 nM
HOP-62 NSCLC
  TGI: > 100000 nM
SK-MEL-5 melanoma
  TGI: > 100000 nM

## CNC(=O)c1c(NC(=O)c2ccc(C(C)C)cc2)sc2c1CCC(=O)C2
DU-145 prostate
  GI50: 3250 nM
  TGI: 12200 nM
EKVX NSCLC
  GI50: 719 nM
  TGI: 2740 nM
MALME-3M melanoma
  GI50: 891 nM
  TGI: 2940 nM
SNB-75 CNS
  GI50: 1050 nM
  TGI: 3530 nM
MCF7 breast
  GI50: 428 nM
  TGI: 5320 nM
PC-3 prostate
  GI50: 152 nM
  TGI: 1320 nM
CAKI-1 renal
  GI50: 310 nM
  TGI: 1500 nM
HL-60(TB) leukemia
  GI50: 303 nM
  TGI: 2150 nM
UO-31 renal
  GI50: 260 nM
  TGI: 1100 nM
A549 NSCLC
  GI50: 401 nM
  TGI: 5450 nM
NCI-H522 lung
  GI50: 149 nM
  TGI: 1040 nM
SW-620 colon
  GI50: 125 nM
  TGI: 1320 nM
OVCAR-3 ovarian
  GI50: 423 nM
  TGI: 1570 nM
M14 melanoma
  GI50: 454 nM
  TGI: 2030 nM
NCI/ADR-RES ovarian
  GI50: 461 nM
  TGI: 2240 nM
MDA-MB-231 breast
  GI50: 394 nM
  TGI: 1710 nM
NCI-H460 lung
  GI50: 580 nM
  TGI: 2820 nM
HCC-2998 colon
  GI50: 906 nM
  TGI: 2940 nM
RPMI-8226 leukemia
  GI50: 114 nM
  TGI: 675 nM
UACC-257 melanoma
  GI50: 2050 nM
  TGI: 6350 nM
OVCAR-8 ovarian
  GI50: 338 nM
  TGI: 2380 nM
TK-10 renal
  GI50: 504 nM
  TGI: 13000 nM
SF-268 CNS
  GI50: 443 nM
  TGI: 2410 nM
SK-MEL-28 melanoma
  GI50: 748 nM
  TGI: 3390 nM
HT29 colon
  GI50: 338 nM
  TGI: 1600 nM
HCT-15 colon
  GI50: 216 nM
  TGI: 1470 nM
HOP-92 NSCLC
  GI50: 703 nM
  TGI: 3390 nM
SNB-19 CNS
  GI50: 453 nM
  TGI: 5710 nM
A498 renal
  GI50: 715 nM
  TGI: 3780 nM
SR leukemia
  GI50: 273 nM
  TGI: 4450 nM
SF-295 CNS
  GI50: 1130 nM
  TGI: 3350 nM
NCI-H226 lung
  GI50: 1730 nM
  TGI: 5290 nM
786-0 renal
  GI50: 636 nM
  TGI: 3910 nM
LOX IMVI melanoma
  GI50: 240 nM
  TGI: 1290 nM
OVCAR-5 ovarian
  GI50: 496 nM
  TGI: 1930 nM
U251 CNS
  GI50: 253 nM
  TGI: 1420 nM
UACC-62 melanoma
  GI50: 453 nM
  TGI: 1940 nM
IGROV1 ovarian
  GI50: 542 nM
  TGI: 2400 nM
COLO 205 colon
  GI50: 288 nM
  TGI: 914 nM
RXF 393 renal
  GI50: 289 nM
  TGI: 1380 nM
HCT-116 colon
  GI50: 89.2 nM
  TGI: 1340 nM
NCI-H23 lung
  GI50: 418 nM
  TGI: 3920 nM
ACHN renal
  GI50: 279 nM
  TGI: 1140 nM
K-562 leukemia
  GI50: 108 nM
  TGI: > 100000 nM
HS 578T breast
  GI50: 357 nM
  TGI: 2340 nM
KM12 colon
  GI50: 404 nM
  TGI: 1690 nM
T-47D breast
  GI50: 341 nM
  TGI: 2300 nM
SN12C renal
  GI50: 603 nM
  TGI: 2380 nM
SK-OV-3 ovarian
  GI50: 2470 nM
  TGI: 9090 nM
SF-539 CNS
  GI50: 306 nM
  TGI: 1220 nM
SK-MEL-2 melanoma
  GI50: 1600 nM
  TGI: 5960 nM
MOLT-4 leukemia
  GI50: 500 nM
  TGI: 7910 nM
MDA-MB-435
  GI50: 1070 nM
  TGI: 3930 nM
CCRF-CEM leukemia
  GI50: 146 nM
OVCAR-4 ovarian
  GI50: 320 nM
  TGI: 1160 nM
HOP-62 NSCLC
  GI50: 3410 nM
  TGI: 18400 nM
SK-MEL-5 melanoma
  GI50: 605 nM
  TGI: 1700 nM
BT-549 breast
  GI50: 505 nM
  TGI: 2710 nM

Source: PubChem BioAssay (NCI)
